Laboratory results from patent US20150057246A1, “SILYL-CONTAINING HETEROCYCLIC COMPOUNDS AND METHODS OF USE THEREOF FOR THE TREATMENT OF VIRAL DISEASES” (priority 2012, published 2015).
Like-named read-outs stand apart in the source and are kept apart here.

Assays:
HCV 1a replicon = assay: Cell-based HCV replicon assay (TaqMan), genotype 1a replicon; conditions: HCV genotype 1a replicon cells, replicon RNA by real time PCR, day 3, EC90 = concentration for ΔCT=3.2 over baseline
Description: (§1) Measurement of inhibition by compounds of the present invention was performed using the HCV replicon system. Several different replicons encoding different HCV genotypes or mutations were used. In addition, potency measurements were made using different formats of the replicon assay, including different ways of measurements and different plating formats. See Jan M. Vrolijk et al., A replicons-based bioassay for the measurement of interferons in patients with chronic hepatitis C, 110 J. VIROLOGICAL METHODS 201 (2003); Steven S. Carroll et al., Inhibition of Hepatitis C Virus RNA Replication by 2′-Modified Nucleoside Analogs, 278(14) J. BIOLOGICAL CHEMISTRY 11979 (2003). However, the underlying principles are common to all of these determinations, and are outlined below.
(§2) TaqMan®-Based Assay Protocol:
(§3) Compounds of the present invention were assayed for cell-based anti-HCV activity using the following protocol. Replicon cells were seeded at 5000 cells/well in 96-well collagen I-coated Nunc plates in the presence of the test compound. Various concentrations of test compound, typically in 10 serial 2-fold dilutions, were added to the assay mixture, with the starting concentration ranging from 250 μM to 1 μM. The final concentration of DMSO was 0.5%, fetal bovine serum was 5%, in the assay media. Cells were harvested on day 3 by the addition of 1× cell lysis buffer (Ambion cat #8721). The replicon RNA level was measured using real time PCR (TaqMan® assay). The amplicon was located in 5B. The PCR primers were: 5B.2F, ATGGACAGGCGCCCTGA (SEQ. ID NO. 1); 5B.2R, […] (SEQ. ID NO. 2); the probe sequence was FAM-labeled CACGCCATGCGCTGCGG (SEQ. ID NO. 3). GAPDH RNA was used as endogenous control and was amplified in the same reaction as NS5B (multiplex PCR) using primers and VIC-labeled probe recommended by the manufacturer (PE Applied Biosystem). The real-time […] reactions were run on ABI PRISM 7900HT Sequence Detection System using the following program: 48° C. for 30 minutes, 95° C. for 10 minutes, 40 cycles of 95° C. for 15 sec, 60° C. for 1 minute. The ΔCT values (CT5B-CTGAPDH) were plotted against the concentration of test compound and fitted to the sigmoid dose-response model using XLfit4 (MDL). EC50 was defined as the concentration of inhibitor necessary to achieve ΔCT=1 over the projected baseline; EC90 the concentration necessary to achieve ΔCT=3.2 over the baseline. Alternatively, to quantitate the absolute amount of replicon RNA, a standard curve was established by including serially diluted T7 transcripts of replicon RNA in the Taqman assay. All TaqMan® reagents were from PE Applied Biosystems. Such an assay procedure was described in detail in e.g. Malcolm et al., Antimicrobial Agents and Chemotherapy 50: 1013-1020 (2006).
(§4) HCV replicon EC50 assay data for various replicons and mutants was calculated for selected compounds of the present invention using this method and is provided in the tables above herein.

HCV 1a Y93H replicon = assay: Cell-based HCV replicon assay (TaqMan), 1a Y93H mutant replicon; conditions: EC90 = concentration for ΔCT=3.2 over baseline
Description: as §1, §2, §3, §4

HCV 2b replicon = assay: Cell-based HCV replicon assay (TaqMan), genotype 2b replicon; conditions: EC90 = concentration for ΔCT=3.2 over baseline
Description: as §1, §2, §3, §4

[1] = Hepatitis C virus, 72 h, read-out: 1a Y93H EC90, HCV 1a Y93H mutant replicon cells, replicon RNA by real time PCR, day 3
[2] = Hepatitis C virus, 72 h, read-out: 2b EC90, HCV genotype 2b replicon cells, replicon RNA by real time PCR, day 3
[3] = read-out: 2b EC90, HCV genotype 2b replicon cells, replicon RNA by real time PCR, day 3

SMILES	EC90 (HCV 1a replicon; Hepatitis C virus, 72 h) [nM]	EC90 (HCV 1a Y93H replicon; [1]) [nM]	EC90 (HCV 2b replicon; [2]) [nM]	EC90 (HCV 1a replicon) [nM]	EC90 (HCV 2b replicon; [3]) [nM]	EC90 (HCV 1a Y93H replicon; read-out: 1a Y93H EC90, HCV 1a Y93H mutant replicon cells, replicon RNA by real time PCR, day 3) [nM]
COC(=O)N[C@H](C(=O)N1CCC[C@H]1c1ncc(-c2ccc(-c3ccc4c(ccc5nc([C@@H]6C[Si](C)(C)CN6C(=O)[C@@H](NC(=O)OC)C(C)OC)[nH]c54)c3)cc2)[nH]1)C(C)OC (some centres unmarked) [Compound 19]	0.036	> 100	> 100			
CCC(C)[C@H](NC(=O)OC)C(=O)N1CCC[C@H]1c1ncc(-c2ccc(-c3ccc4c(ccc5nc([C@@H]6C[Si](C)(C)CN6C(=O)[C@@H](NC(=O)OC)C(C)CC)[nH]c54)c3)cc2)[nH]1 (some centres unmarked) [Compound 20]	0.063	> 100	> 100			
CCN(CC)[C@@H](C(=O)N1CCC[C@H]1c1ncc(-c2ccc(-c3ccc4c(ccc5nc([C@@H]6C[Si](C)(C)CN6C(=O)[C@@H](c6ccccc6)N(CC)CC)[nH]c54)c3)cc2)[nH]1)c1ccccc1 [Compound 21]	0.25	> 100	0.39			
COC(=O)N[C@H](C(=O)N1C[Si](C)(C)C[C@H]1c1ncc(-c2ccc(-c3ccc4c(ccc5nc([C@@H]6CCCN6C(=O)[C@@H](NC(=O)OC)C6CCCC6)[nH]c54)c3)cc2)[nH]1)C1CCCC1 [Compound 35]	0.5	555	566			
COC(=O)N[C@H](C(=O)N1C[Si](C)(C)C[C@H]1c1ncc(-c2ccc(-c3ccc4c(ccc5nc([C@@H]6CCCN6C(=O)[C@@H](NC(=O)OC)[C@@H](C)OC)[nH]c54)c3)cc2)[nH]1)[C@@H](C)OC [Compound 36]	0.152	276	> 1000			
COC(=O)N[C@@H](Cc1cccc(O)c1)C(=O)N1C[Si](C)(C)C[C@H]1c1ncc(-c2ccc(-c3ccc4c(ccc5nc([C@@H]6CCCN6C(=O)[C@H](Cc6cccc(O)c6)NC(=O)OC)[nH]c54)c3)cc2)[nH]1 [Compound 37]	2.52	> 1000	> 1000			
COC(=O)N[C@@H](Cn1ncnn1)C(=O)N1C[Si](C)(C)C[C@H]1c1ncc(-c2ccc(-c3ccc4c(ccc5nc([C@@H]6CCCN6C(=O)[C@H](Cn6ncnn6)NC(=O)OC)[nH]c54)c3)cc2)[nH]1 [Compound 38]	2.57	> 1000	408			
COC(=O)N1CCOC[C@H]1C(=O)N1C[Si](C)(C)C[C@H]1c1ncc(-c2ccc(-c3ccc4c(ccc5nc([C@@H]6CCCN6C(=O)[C@@H]6COCCN6C(=O)OC)[nH]c54)c3)cc2)[nH]1 [Compound 39]	149	> 1000	> 1000			
COC(=O)N[C@@H](Cc1cn(C)cn1)C(=O)N1C[Si](C)(C)C[C@H]1c1ncc(-c2ccc(-c3ccc4c(ccc5nc([C@@H]6CCCN6C(=O)[C@H](Cc6cn(C)cn6)NC(=O)OC)[nH]c54)c3)cc2)[nH]1 [Compound 40]	2.57	> 1000	> 1000			
CC[C@H](C)[C@H](NC(=O)OC)C(=O)N1C[Si](C)(C)C[C@H]1c1ncc(-c2ccc(-c3ccc4c(ccc5nc([C@@H]6CCCN6C(=O)[C@@H](NC(=O)OC)[C@@H](C)CC)[nH]c54)c3)cc2)[nH]1 [Compound 41]		614		0.19	271	
CC[C@H](NC(=O)OC)C(=O)N1C[Si](C)(C)C[C@H]1c1ncc(-c2ccc(-c3ccc4c(ccc5nc([C@@H]6CCCN6C(=O)[C@H](CC)NC(=O)OC)[nH]c54)c3)cc2)[nH]1 [Compound 44]	0.3	302	171			
COC(=O)N[C@@H](CCSC)C(=O)N1C[Si](C)(C)C[C@H]1c1ncc(-c2ccc(-c3ccc4c(ccc5nc([C@@H]6CCCN6C(=O)[C@H](CCSC)NC(=O)OC)[nH]c54)c3)cc2)[nH]1 [Compound 45]	0.85	> 1000	563			
COC(=O)N[C@@H](Cc1ccccc1)C(=O)N1C[Si](C)(C)C[C@H]1c1ncc(-c2ccc(-c3ccc4c(ccc5nc([C@@H]6CCCN6C(=O)[C@H](Cc6ccccc6)NC(=O)OC)[nH]c54)c3)cc2)[nH]1 [Compound 46]	4.75	> 1000	> 1000			
CC[C@H](C)[C@H](NC(=O)OC)C(=O)N1C[Si](C)(C)C[C@H]1c1ncc(-c2ccc(-c3ccc4c(ccc5nc([C@@H]6CCCN6C(=O)[C@@H](NC(=O)OC)[C@@H](C)CC)[nH]c54)c3)cc2)[nH]1 [Compound 47]				0.59	578	953
CCCC(NC(=O)OC)C(=O)N1C[Si](C)(C)C[C@H]1c1ncc(-c2ccc(-c3ccc4c(ccc5nc([C@@H]6CCCN6C(=O)[C@H](CCC)NC(=O)OC)[nH]c54)c3)cc2)[nH]1 (some centres unmarked) [Compound 48]	0.64	761	882			
COC(=O)N[C@H](C)C(=O)N1C[Si](C)(C)C[C@H]1c1ncc(-c2ccc(-c3ccc4c(ccc5nc([C@@H]6CCCN6C(=O)[C@@H](C)NC(=O)OC)[nH]c54)c3)cc2)[nH]1 [Compound 49]	386	> 1000	> 1000			
COC(=O)N[C@@H](C(=O)N1C[Si](C)(C)C[C@H]1c1ncc(-c2ccc(-c3ccc4c(ccc5nc([C@@H]6CCCN6C(=O)[C@H](NC(=O)OC)C6CC6)[nH]c54)c3)cc2)[nH]1)C1CC1 [Compound 50]	> 1000	> 1000	> 1000			
COC(=O)N[C@H](C(=O)N1C[Si](C)(C)C[C@H]1c1ncc(-c2ccc(-c3ccc4c(ccc5nc([C@@H]6CCCN6C(=O)[C@@H](NC(=O)OC)C6CC6)[nH]c54)c3)cc2)[nH]1)C1CC1 [Compound 51]	0.51	> 1000	> 1000			
COC(=O)N[C@H](C(=O)N1C[Si](C)(C)C[C@H]1c1ncc(-c2ccc(-c3ccc4c(ccc5nc([C@@H]6CCCN6C(=O)[C@@H](NC(=O)OC)C6CCCOCC6)[nH]c54)c3)cc2)[nH]1)C1CCCOCC1 (some centres unmarked) [Compound 52]	2.3	> 1000	37			
COC(=O)N[C@@H](C(=O)N1C[Si](C)(C)C[C@H]1c1ncc(-c2ccc(-c3ccc4c(ccc5nc([C@@H]6CCCN6C(=O)[C@H](NC(=O)OC)c6ccccc6)[nH]c54)c3)cc2)[nH]1)c1ccccc1 [Compound 53]	7.27	> 1000	> 1000			
COC(=O)N1CCC[C@H]1C(=O)N1C[Si](C)(C)C[C@H]1c1ncc(-c2ccc(-c3ccc4c(ccc5nc([C@@H]6CCCN6C(=O)[C@@H]6CCCN6C(=O)OC)[nH]c54)c3)cc2)[nH]1 [Compound 54]	> 1000	> 1000	> 1000			
CC(C)(C)OC(=O)N1C[Si](C)(C)C[C@H]1c1nc2ccc3cc(-c4ccc(-c5cnc([C@@H]6C[C@H]7C[C@H]7N6C(=O)OC(C)(C)C)[nH]5)cc4)ccc3c2[nH]1 [Compound 97]		> 1000		> 1		
COC(=O)N[C@H](C(=O)N1C[Si](C)(C)C[C@H]1c1nc2ccc3cc(-c4ccc(-c5[nH]c([C@@H]6C[C@H]7C[C@H]7N6C(=O)[C@@H](NC(=O)OC)C(C)C)nc5Cl)cc4)ccc3c2[nH]1)C(C)C [Compound 102]	0.048	140				
CC(C)(C)OC(=O)N1C[Si](C)(C)C[C@H]1c1nc2ccc3cc(-c4ccc(-c5nc(Cl)c([C@@H]6C[C@H]7C[C@H]7N6C(=O)OC(C)(C)C)[nH]5)cc4)ccc3c2[nH]1 [Compound 109]	> 1	> 100				
CC(C)(C)OC(=O)N1CCC[C@H]1c1ncc(-c2ccc3cc(-c4ccc5c(ccc6nc([C@@H]7C[Si](C)(C)CN7C(=O)OC(C)(C)C)[nH]c65)c4)ccc3c2)[nH]1 [Compound 110]	> 1000	> 1000				
